In ChEMBL document CHEMBL1125447, “Phenylmorphans and analogues: opioid receptor subtype selectivity and effect of conformation on activity” (J Med Chem, 1992):
pKi: −log10 of the molar value.

Tests used:
Mu-type opioid receptor [1] = biological target: T1, Mu-type opioid receptor (Bos taurus, UniProt P79350); test: Binding affinity towards opioid receptor mu 1
Mu-type opioid receptor [2] = biological target: T1, Mu-type opioid receptor; test: Binding affinity towards opioid receptor mu 2
[3] = biological target: Kappa-type opioid receptor (Cavia porcellus, UniProt P41144); test: Binding affinity towards opioid receptor kappa 1
Sequence of Kappa-type opioid receptor (P41144 whole entry): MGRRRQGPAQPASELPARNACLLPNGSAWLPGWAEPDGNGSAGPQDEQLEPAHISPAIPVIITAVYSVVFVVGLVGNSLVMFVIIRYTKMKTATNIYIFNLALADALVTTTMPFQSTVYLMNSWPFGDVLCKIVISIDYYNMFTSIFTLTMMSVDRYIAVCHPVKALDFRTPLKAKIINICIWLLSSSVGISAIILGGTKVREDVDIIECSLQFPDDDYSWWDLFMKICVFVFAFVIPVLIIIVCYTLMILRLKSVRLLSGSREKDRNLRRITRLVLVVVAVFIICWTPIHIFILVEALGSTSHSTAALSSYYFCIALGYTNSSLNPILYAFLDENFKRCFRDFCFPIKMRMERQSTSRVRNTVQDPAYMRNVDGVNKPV

Mus musculus = test: Antinociceptive activity displayed after pretreatment with selective opioid antagonist beta-FNA([…], sc); type: functional

T1 sequence (P79350 whole entry): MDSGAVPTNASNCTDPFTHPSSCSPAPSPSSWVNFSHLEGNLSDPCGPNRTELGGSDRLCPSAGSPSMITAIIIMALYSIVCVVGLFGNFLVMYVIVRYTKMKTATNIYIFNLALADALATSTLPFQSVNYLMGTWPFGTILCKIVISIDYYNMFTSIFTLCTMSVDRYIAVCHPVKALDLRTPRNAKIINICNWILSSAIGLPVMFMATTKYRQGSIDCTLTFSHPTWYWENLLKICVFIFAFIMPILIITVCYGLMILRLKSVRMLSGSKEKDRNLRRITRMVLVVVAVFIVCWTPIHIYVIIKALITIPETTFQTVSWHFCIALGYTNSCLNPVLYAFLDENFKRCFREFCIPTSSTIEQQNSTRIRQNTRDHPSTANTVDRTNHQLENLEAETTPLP

SMILES	pKi (Mu-type opioid receptor [1])	pKi (Mu-type opioid receptor [2])	pKi [3]	Animals (Mus musculus) [%]
CC1(C)SSC(C)(C)[C@@H](NC(=O)[C@@H](N)Cc2ccc(O)cc2)C(=O)NCC(=O)N[C@@H](Cc2ccccc2)C(=O)N[C@H]1C(=O)O	7.09	6.34		
C[C@@H]1C2CCCC1(c1cccc(O)c1)CCN2C (mixture of isomers)	7.34	6.72	7.15	
CN1CCC2(c3cccc(O)c3)CCCC1[C@H]2O (mixture of isomers)	8.06	7.55	6.96	
CN1CCC2(c3cccc(O)c3)CCCC1[C@@H]2O (mixture of isomers)	7.12	< 6.56	< 6.30	
CN1CCC2(c3cccc(O)c3)CCCC1C2 (single isomer, unassigned; (+))	8.47	7.72	7.01	0
C[C@@H]1C2CCCC1(c1cccc(O)c1)CCN2C (single isomer, unassigned; (+))	6.85	< 6.22	7.05	
CN1CCC2(c3cccc(O)c3)CCCC1C2 (single isomer, unassigned; (-))	7.89	7.20	6.70	
C[C@@H]1C2CCCC1(c1cccc(O)c1)CCN2C (single isomer, unassigned; (-))	7.74	7.30	7.31	
